# According to article PMC11351612, “Heteronuclear Complexes with Promising Anticancer Activity against Colon Cancer” (Biomedicines, 2024):
# Read-outs that look alike come from different tables or passages of the source.
# What was measured:
# [1] = test system: ct-DNA (calf thymus DNA); parameters: method as in PMID 20926136; conditions: cited from earlier work
# [2] = test system: Caco-2/TC7 cells; assay: MTT cell proliferation assay, Caco-2/TC7; format: cell-based, human; conditions: 72 h, mean ± SE of at least three determinations
# Procedure: (§1) Cell culture. Human colon cancer Caco-2 cells (PD7 and TC7 clones) were kindly provided by Dr. Edith Brot-Laroche (Université Pierre et Marie Curie-Paris 6, UMR S 872, Les Cordeliers, Lyon, France) and grown in Dulbecco’s Modified Eagles medium (DMEM) (Gibco Invitrogen, Paisley, UK) supplemented with 20% foetal bovine serum (FBS), 1% non-essential amino acids, 1% streptomycin (1000 μg/mL), 1% penicillin (1000 μg/mL), and 1% amphotericin (250 U/mL). Caco-2 cells were maintained at 37 °C in a humidified atmosphere at 5% CO2.
# (§2) Cell proliferation assay. Cell proliferation was measured using the 3-(4,5-dimethyl-2-thiazoyl)-2,5-diphenyltetrazolium bromide (MTT) assay, as previously described. Caco-2/TC7 cells were seeded in a 96-well plate at a density of 4000 cells/well and grown for 24 h before being treated with each complex or DMSO (used as control). After 72 h of incubation with the complexes, 10 μL of MTT (5 mg/mL) were added and incubation was continued at 37 °C for 3 h. Inversion removed the medium and 100 μL of DMSO were added to each well. Absorbance at 560 nm, proportional to many living cells, was measured by spectrophotometry (SPECTROstar Nano, BMG LABTECH, Ortenberg, Germany) and converted into a percentage (%) of growth inhibition.
# (§3) The antiproliferative effects of the mononuclear and heteropolinuclear complexes were tested on two different Caco-2 cancer cell lines (PD7 and […]). […] Caco-2 cells of both PD7 and TC7 clones were exposed to increasing concentrations of the assayed compounds through dose–response/cell viability analysis. The results in terms of the IC50 parameter (Table 4) were obtained by using the MTT protocol.
# [3] = test system: Caco-2/PD7 cells; assay: Annexin V/propidium iodide apoptosis assay, Caco-2/PD7; format: cell-based, human; conditions: Caco-2/PD7, annexin V/PI
# Procedure: Study of cell death. After the appropriate incubation, cells were collected and stained with annexin V-FTIC, according to the manufacturer’s instructions. A negative control was prepared, containing unreacted cells to define the basal level of apoptotic and necrotic or dead cells. After incubation, the cells were transferred to flow-cytometry tubes and washed twice with temperate phosphate-buffered saline (PBS), suspended in 100 μL annexin V binding buffer (10 mM Hepes/NaOH, pH 7.4, 140 mM NaCl, 2.5 mM CaCl2), then 5 μL of annexin V-FITC, and 5 μL of PI was added to each 100 μL of cell suspension. After incubation for 15 min at room temperature in the dark, 400 μL of 1× annexin binding buffer was added and analysed by flow cytometry within one hour. The signal intensity was measured using a FACSARIA BD and analysed using FASCDIVA BD.
# This inhibition of apoptosis produces a fast growth and proliferation of cancerous cells. The population of early and late apoptotic cells increased to 35% after treatment with complex 1 in comparison with the vehicle-treated cells (12%). […] Additionally, the effect observed after treating the cells with a dosage equal to the IC50 concentration is time-dependent. […]
# [4] = test system: Caco-2/PD7 cells; assay: MTT cell proliferation assay, Caco-2/PD7; format: cell-based, human; conditions: MTT, 72 h; mean ± SE of at least three determinations
# Procedure: as §1, §2, §3
# [5] = Distribution coefficient (logP7.4), n-octanol-water shake-flask; format: physicochemical; conditions: n-octanol / buffered saline pH 7.4, shake-flask
# Procedure: Distribution coefficient (logP7.4). The n-octanol-water coefficients of the complexes were determined using a shake-flask method, as previously reported. Briefly, buffered-saline distilled water (100 mL, phosphate buffer [PO4^3−] = 10 mM, [NaCl] = 0.15 M, pH 7.4) and n-octanol (100 mL) were shaken together for 72 h to allow for saturation of both phases. Approximately 1 mg of the complexes was dissolved in 5 mL of the aqueous phase and 5 mL of the organic phase was added, mixing them for 10 min. The resulting emulsion was centrifuged to separate the phases. The concentration of the compounds in each phase was determined using UV-vis absorbance spectroscopy. The logP7.4 was defined as log{[compound(organic)]/[compound(aqueous)]}.
# [6] = test system: pIRES2-EGFP (5308 pb) plasmid DNA; parameters: method as in PMID 24732792, PMID 3707609; conditions: cited from earlier work
# [7] = test system: pIRES2-EGFP (5308 pb) plasmid DNA; assay: Gel electrophoretic mobility of plasmid DNA; format: binding; conditions: metal-to-base pair ratios 0.5, 1, 2; 0.8% agarose gel
# Procedure: Adducts with pIRES2-EGFP (5308 pb) plasmid DNA (Catalog #6029-1) were prepared by adding the required volume of a freshly prepared solution of metal complexes in MilliQ water. The concentration of pIRES2-EGFP in the reaction mixture was 117 ng/µL, and the complexes’ concentration was varied to give different metal-to-base pair stoichiometries (0.5, 1 and 2). The mobility of the metal complex-treated pIRES2-EGFP samples was analysed by gel electrophoresis on a 0.8% (w/v) agarose gel (Boehringer-Mannheim, Mannheim, Germany) at […] at 25 °C in Tris-acetate/EDTA buffer. The gel was stained for 30 min in […] (w/v) ethidium bromide and the bands were visualised with a UVP gel scanner.
# In addition, the interaction of both complexes with DNA was also studied by their ability to modify the electrophoretic mobility of the pIRES2-EGFP (5308 pb) plasmid DNA and compared to cisplatin (Figure 7).
# [8] = test system: A2780/R; parameters: method as in PMID 19937669; conditions: cisplatin-resistant ovarian cancer cell line; cited from earlier work
# [9] = test system: ct-DNA (calf thymus DNA); assay: ct-DNA binding constant by UV-vis titration (Benesi-Hildebrand); conditions: complex 20 μM, ct-DNA 0-100 μM, Tris-HCl pH 7.2
# Procedure: A ctDNA solution was prepared at 1 mg/mL in tris (tris(hydroxymethyl)aminomethane)/HCl (0.1 M, pH 7.2). Then, the purity of the ctDNA was checked, recording its spectra and calculating the absorption ratio between 260 and 280 nm. This experiment also provides the means to calculate the concentration of ctDNA using the Beer–Lambert formula, with the extinction coefficient of 6600 M^−1cm^−1. Every experiment was corrected with a baseline of the buffer and the corresponding concentration of dimethylsulfoxide. The addition of DNA solution was performed in both assay and reference cuvettes. Then, the binding constant was calculated using the modified Benesi–Hildebrand equation. Kb is the binding constant, εf, εa, and εb are the extinction coefficients for the free compound, the apparent coefficient (calculated as the ratio of the absorbance and the concentration of the compound in the experiment), and the compound–DNA complex, respectively. […]
# The binding capabilities of [Cu{Au(Spy)(PTA)}2]PF6 (1) and [Au(Spy)(PTA)] were estimated towards […] by recording the electronic absorption spectra throughout their interaction. The absorbance measurements were performed by successive additions of a DNA stock solution (10, 20, 30, 40 up to 100 μL) which afforded the final concentration of ct-DNA (from 0 to 100 μM) while maintaining the concentration of the complexes (20 μM). […]
# [10] = test system: A2780/S; parameters: method as in PMID 19937669; conditions: ovarian cancer cell line; cited from earlier work
# [11] = test system: differentiated Caco-2/PD7 cells; assay: Cell viability of differentiated (enterocyte-like) Caco-2/PD7 cells; format: cell-based, human
# Procedure: For cell viability studies of differentiated (enterocyte-like) cells, Caco-2/PD7 cells were seeded on 96-well plates at a density of 4 × 10^3 cells/well and incubated for approximately 10–15 days, changing the culture medium every 3 days, up to reaching confluence—the moment in which the cells were treated with the complexes at concentrations equal to their mean IC50 and 2 × IC50 values.
# It is well known that the Caco-2 cell line undergoes spontaneous differentiation into enterocytic-like cells when it reaches confluency. As a result, these cells become polarised, expressing apical and basolateral surfaces with established tight junctions. This allowed for the evaluation of the cytotoxic impact of the complexes on differentiated cells (acting as noncarcinogenic) and a comparison with the viability of undifferentiated cells. Thus, the toxicity of the two heteronuclear compounds has been studied by cell viability experiments by treatment of Caco-2/PD7 cells after differentiation with complexes 1 and 2 at the corresponding concentrations equivalent to IC50 and 2 × IC50 values for 72 h. The results expressed as the % of cell viability observed after treatment with the complexes (or 100% for non-treated control cells) are summarised in Figure S16 (Supplementary Materials). […] However, the cell viability is around 90% even when the cells are treated with double the IC50 concentration.
compound,measurement,setting,value
"CC[n+]1c(-c2ccccc2)c2cc(N)ccc2c2ccc(N)cc21 [EB, ethidium bromide]",DNA binding constant Kb,[1],1.23(±0.07) × 10^5 M^−1
"CC(=O)OC[C@H]1O[C@@H]([S-])[C@H](OC(C)=O)[C@@H](OC(C)=O)[C@@H]1OC(C)=O.CCP(CC)CC.[Au+] [Auranofin, reference compound]",IC50,[2],2100 ± 400 nM
same,Cell death stage after treatment,[3],most cells being found in late-stage apoptosis and necrosis
same,IC50,[4],1800 ± 100 nM
same,logP,[5],−2.53
same,Reactivity with DNA,[6],lack of reactivity
N.N.[Cl][Pt][Cl] [cisplatin],Effect on electrophoretic mobility of plasmid DNA,[7],greatly alters the electrophoretic mobility
c1ccc([S][Au][P]23CN4CN(CN(C4)C2)C3)nc1 [[Au(Spy)(PTA)]],IC50,[2],2030 ± 20 nM
same,IC50,[8],8200 nM
same,DNA binding constant Kb,[9],90600 M⁻¹
same,Effect on electrophoretic mobility of plasmid DNA,[7],does not affect the mobility
same,IC50,[10],9600 nM
same,IC50,[4],2640 ± 250 nM
[Zn{Au(PTA)(Spy)}2]Cl2 [compound 3],Cell viability of differentiated Caco-2 cells at 2 × IC50,"[11]; differentiated Caco-2/PD7, concentration = 2 × IC50, 72 h",93.18 ± 11.99%
same,Cell viability of differentiated Caco-2 cells at IC50,"[11]; differentiated Caco-2/PD7, concentration = IC50, 72 h",98.87 ± 21.63%
